Measured values as given in patent publication US11713320B2, “5-heteroaryl substituted indazole-3-carboxamides and preparation and use thereof” (BioSplice Therapeutics, Inc., priority 2018, dated 2023).

What was measured:
[1] = system: primary human fibroblasts derived from IPF patients (LL29 cells) treated with TGF-β1; test: Inhibition of the fibrotic process: αSMA staining in TGF-β1 treated LL29 fibroblasts; format: cell-based; settings: % cells positive for αSMA, TGF-β1 20 ng/mL, 4 days
Experimental: Representative compounds were screened using primary human fibroblasts (derived from IPF patients) treated with TGF-β1 to determine their ability to inhibit the fibrotic process.
LL29 cells were plated at 1,500 cells/well in 70 μL/well F12 medium supplemented with 1% Fetal Bovine Serum. […] Wells treated with TGF-β1 and containing DMSO were used as positive control, and cells with only DMSO were negative control. […] Following incubation for 4 days, SYTOX green nucleic acid stain (Life Technologies [Thermo Fisher Scientific]) was added to the wells at a final concentration of 1 μM and incubated at room temperature for 30 min.

[2] = system: primary human mesenchymal stem cells (hMSCs); test: Tenocyte differentiation assay in hMSCs (SCXA staining); format: cell-based; settings: given for EC50 of >100 μM; not defined in the method
From the text: Representative compounds were screened using primary human mesenchymal stem cells (hMSCs) to determine their ability to induce tenocyte differentiation (process by which tendon is developed).
Human Mesenchymal Stem Cell Culture: Primary human mesenchymal stem cells (hMSCs) were purchased from Lonza (Walkersville, Md.) and expanded in Mesenchymal Stem Cell Growth Media (Lonza). Cells between passage 3 and 6 were used for the experiments.
Cells were fixed using 4% formaldehyde (Electron Microscopy Sciences), and stained with anti-Sclerasis (anti-SCXA) antibodies (Abgent, San Diego, Calif.) [Webb S., et. al., Retinoic acid receptor signaling preserves tendon stem cell characteristics and prevents spontaneous differentiation in vitro, Stem Cell Research & Therapy 2016, 7:45] overnight at 4° C. […] Number of cells positive for SCXA in each well was quantified using the CellInsight CX5. Data was normalized to the average of 12 DMSO treated wells on the same plate using Dotmatics Studies module. The normalized averages (fold change over DMSO) of 3 replicate wells for each compound concentration were calculated. Due to solubility limitations of some of the compounds, values for higher doses were manually corrected and curve fitting and EC50 determinations were performed using Dotmatics Studies.

[3] = system: Wnt activity (Sp5-Luc reporter, TCF/LEF binding sites) in SW480 colon carcinoma cells; test: Screening assay for Wnt activity: Sp5-Luc reporter gene assay in SW480 cells; format: cell-based, human; settings: 36 to 48 hours
From the text: The screening assay for Wnt activity is described as follows. Reporter cell lines can be generated by stably transducing cancer cell lines (e.g., colon cancer) or primary cells (e.g., IEC-6 intestinal cells) with a lentiviral construct that includes a Wnt-responsive promoter driving expression of the firefly luciferase gene.
SW480 colon carcinoma cells were transduced with a lentiviral vector expressing luciferase with a human Sp5 promoter consisting of a sequence of eight TCF/LEF binding sites. SW480 cells stably expressing the Sp5-Luc reporter gene and a hygromycin resistance gene were selected by treatment with 150 μg/mL of hygromycin for 7 days. These stably transduced SW480 cells were expanded in cell culture and used for all further screening activities. […] For Sp5-Luc reporter gene assays, the cells were plated at 4,000 cells/well in 384-well plates with a DMEM medium containing 1% fetal bovine serum, and 1% Penicillin-Streptomycin and incubated for 36 to 48 hours at 37° C. and 5% CO2. Following incubation, 15 μl of BriteLite Plus luminescence reagent (Perkin Elmer) was added to each well of the 384-well assay plates. The plates were placed on an orbital shaker for 2 min and then luminescence was quantified using the Envision (Perkin Elmer) plate reader. Readings were normalized to DMSO only treated cells, and normalized activities were utilized for EC50 calculations using the dose-response log (inhibitor) vs. response variable slope (four parameters) nonlinear regression feature available in GraphPad Prism 5.0 (or Dotmatics).

[4] = system: SW480 colon carcinoma cells; test: Cell viability assay (CellTiter-Glo) in SW480 cells; format: cell-based, human; settings: four days
Experimental: Representative compounds were screened using the assay procedure to assess the effect on cell viability as described below.
SW480 colon carcinoma cells were transduced with a lentiviral vector expressing luciferase with a human Sp5 promoter consisting of a sequence of eight TCF/LEF binding sites. SW480 cells stably expressing the Sp5-Luc reporter gene and a hygromycin resistance gene were selected by treatment with 150 μg/mL of hygromycin for 7 days. These stably transduced SW480 cells were expanded in cell culture and used for all further screening activities.
For the Cell Viability Assays, the cells were plated at 2,000 cells/well in 384-well plates with a DMEM medium containing 1% fetal bovine serum, and 1% Penicillin-Streptomycin and incubated for […] at 37° C. and 5% CO2. Eight replicates of DMSO-treated cells served as controls and cells treated with compound were performed in duplicate.
After incubation, 10 μL of CellTiter-Glo (Promega) was added to each well allowed to incubate for approximately 12 minutes. This reagent “results in cell lysis and generation of a luminescent signal proportional to the amount of ATP present. The amount of ATP is directly proportional to the number of cells present in culture, in agreement with previous reports. The CellTiter-Glo® Assay generates a “glow-type” luminescent signal, produced by the luciferase reaction (Promega.com)”.

IL-6 = IL-6 inhibition in LPS-stimulated human PBMCs (HTRF); format: cell-based; settings: PBMC; for EC50: IL-6, huPBMCs, LPS 50 ng/mL, 22 hours
Experimental: Human Peripheral Blood Mononuclear Cells: Fresh Normal PB MNC (Catalog #PB001, AllCells, Alameda, Calif.) were shipped overnight at 4° C. and resuspended in Roswell Park Memorial Institute (RPMI) 1640 Medium, with GlutaMAX Supplement (Catalog #61870127, ThermoFisher Scientific, Waltham, Mass.) supplemented with 1% Penicillin-Streptomycin (Catalog #15140163, ThermoFisher Scientific, Waltham, Mass.) and 1% fetal bovine serum (FBS) (Catalog #16140089, ThermoFisher Scientific, Waltham, Mass.) assay media.
Compound Screening: Fresh normal human peripheral blood mononuclear cells (huPBMCs) were resuspended in 1% FBS-RPMI assay media with 1% Penicillin-Streptomycin 1% to a cell concentration of 1×10e6 cells/mL. […] 50 ng/mL of Lipopolysaccharides from Escherichia coli 0111:B4 (Catalog #L5293-2ML, Sigma-Aldrich, St. Louis, Mo.) was added after 2 hours and cells were incubated for another 22 hours at 37° C.-5% CO2. After 22 hour incubation, a mixture of anti-IL6 XL665 and anti-IL-6 Cryptate diluted in reconstitution buffer (Catalog #62IL6PEC, Cisbio Inc., Bedford, Mass.) was added to each well. Following incubation for 3 hours at room temperature, Homogeneous Time-Resolved Fluorescence (HTRF) was measured using the Envision (Perkin Elmer, Shelton, Conn.) at 665 nm and […]. The ratio of fluorescence at 665 nm to 620 nm was used as a readout for IL-6 quantification. All samples were processed in duplicate. Readings were normalized to DMSO treated cells and normalized activities were utilized for EC50 calculations. EC50 was determined using software generated by Dotmatics Limited (Windhill Bishops Stortford Herts, UK) using the Levenberg-Marquardt 4 parameter fitting procedure with finite different gradients.

O=C(Nc1ccc(F)cc1)c1n[nH]c2ccc(-c3cnc4n3CCNC4)cc12 [Compound 52, N-(4-Fluorophenyl)-5-(5,6,7,8-tetrahydroimidazo[1,2-a]pyrazin-3-yl)-1H-indazole-3-carboxamide]
EC50 ([1]; Homo sapiens, Fibroblast, 96 h): 0.54 µM

CN1CCN(c2cccc(NC(=O)c3n[nH]c4cc(F)c(-c5cnn(C)c5)cc34)c2)CC1 [Compound 149, 6-Fluoro-5-(1-methyl-1H-pyrazol-4-yl)-N-(3-(4-methylpiperazin-1-yl)phenyl)-1H-indazole-3-carboxamide]
percent value in parentheses beside EC50 >100 [2]: (36.0%)

C[C@H]1C[C@H](NC(=O)c2n[nH]c3ccc(-c4cnn(C)c4)cc23)CCN1CC(C)(C)F [Compound 44, N-((2S,4R)-1-(2-fluoro-2-methylpropyl)-2-methylpiperidin-4-yl)-5-(1-methyl-1H-pyrazol-4-yl)-1H-indazole-3-carboxamide]
EC50 ([3]; Homo sapiens): 0.279 µM
EC50 ([4]; Homo sapiens, 96 h): 1.52 µM
EC50 ([1]; Homo sapiens, Fibroblast, 96 h): 0.199 µM
EC50 (IL-6): 1.03 µM

CC(C)(F)CN1CCC(n2cc(-c3ccc4[nH]nc(C(=O)Nc5ccc(OC(F)F)cc5)c4c3)cn2)CC1 [Compound 61, N-(4-(difluoromethoxy)phenyl)-5-(1-(1-(2-fluoro-2-methylpropyl)piperidin-4-yl)-1H-pyrazol-4-yl)-1H-indazole-3-carboxamide]
EC50 [3]: > 10 µM
EC50 [4]: > 10 µM
EC50 [1]: 0.009 µM

Cc1cc(NC(=O)c2n[nH]c3ccc(-c4cnn(C5CCN(C)CC5)c4)cc23)sn1 [Compound 143, N-(3-Methylisothiazol-5-yl)-5-(1-(1-methylpiperidin-4-yl)-1H-pyrazol-4-yl)-1H-indazole-3-carboxamide]
percent value in parentheses beside EC50 >100 [2]: (23.0%)

Cn1cc(-c2cc(F)c3[nH]nc(C(=O)NC4CCN(CC(F)F)CC4)c3c2)cn1 [Compound 101, N-(1-(2,2-Difluoroethyl)piperidin-4-yl)-7-fluoro-5-(1-methyl-1H-pyrazol-4-yl)-1H-indazole-3-carboxamide]
percent value in parentheses beside EC50 >100 [2]: (33.0%)

Cn1cc(-c2cc3c(C(=O)Nc4cccc(OCCN5CCCC5)c4)n[nH]c3cc2F)cn1 [Compound 154, 6-Fluoro-5-(1-methyl-1H-pyrazol-4-yl)-N-(3-(2-(pyrrolidin-1-yl)ethoxy)phenyl)-1H-indazole-3-carboxamide]
percent value in parentheses beside EC50 >100 [2]: (21.0%)

5-(1,2-Dimethyl-1H-imidazol-5-yl)-N-(2-methylthiazol-5-yl)-1H-indazole-3-carboxamide [Compound 139]
percent value in parentheses beside EC50 >100 [2]: (21.2%)

Cc1ncc(-c2ccc3[nH]nc(C(=O)NC4CCN(CC(C)(C)F)CC4)c3c2)n1C [Compound 42, 5-(1,2-Dimethyl-1H-imidazol-5-yl)-N-(1-(2-fluoro-2-methylpropyl)piperidin-4-yl)-1H-indazole-3-carboxamide]
EC50 ([3]; Homo sapiens): 0.507 µM
EC50 ([4]; Homo sapiens, 96 h): > 10 µM
EC50 ([1]; Homo sapiens, Fibroblast, 96 h): 1.36 µM
EC50 (IL-6): > 10 µM
inhibition at 10 µM (IL-6; read-out: percent inhibition at 10 μM): 10.4%

CN1CCC(Oc2cccc(NC(=O)c3n[nH]c4cc(F)c(-c5cnn(C)c5)cc34)c2)CC1 [Compound 151, 6-Fluoro-5-(1-methyl-1H-pyrazol-4-yl)-N-(3-((1-methylpiperidin-4-yl)oxy)phenyl)-1H-indazole-3-carboxamide]
percent value in parentheses beside EC50 >100 [2]: (3.5%)

CN1CCC(Oc2ccc(NC(=O)c3n[nH]c4c(F)cc(-c5cnn(C)c5)cc34)cn2)CC1 [Compound 129, 7-Fluoro-5-(1-methyl-1H-pyrazol-4-yl)-N-(6-((1-methylpiperidin-4-yl)oxy)pyridin-3-yl)-1H-indazole-3-carboxamide]
percent value in parentheses beside EC50 >100 [2]: (13.0%)

Cc1ncc(-c2ccc3[nH]nc(C(=O)Nc4ccc(OC5CCN(C)CC5)cc4)c3c2)s1 [Compound 82, N-(4-((1-Methylpiperidin-4-yl)oxy)phenyl)-5-(2-methylthiazol-5-yl)-1H-indazole-3-carboxamide]
percent value in parentheses beside EC50 >100 [2]: (2.9%)
